Assay results taken from patent publication US11718604B2, “4-amino-6-(1,3-benzodioxole)picolinates and their use as herbicides” (Dow AgroSciences LLC, priority 2018, dated 2023).

Experiments:
Assay type in all cases: in vivo
[1] = tested on: VIOTR: wild violet (Viola tricolor); assay: Post-emergent herbicidal test, wild violet; conditions: post-emergence, 336 h, 14 days after application, read-out: Visual Growth Reduction (%) 14 Days After Application VIOTR; for pest or weed control at 17.5 g/ha: 17.5 g ai/ha; for pest or weed control at 35 g/ha: 35 g ai/ha; for pest or weed control at 70 g/ha: 70 g ai/ha; for pest or weed control at 140 g/ha: 140 g ai/ha
Outline: (§1)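 Seedlings grown in greenhouse (23-29 °C day, 22-28 °C night, ~15 h photoperiod) to first or second true leaf stage were sprayed overhead at 187 L/ha with compound in acetone/DMSO/water/isopropanol/crop oil/Triton X-155, at the high rate and ½× to 1/16× dilutions. Injury scored visually after 14 d, 0 (none) to 100% (complete kill), relative to untreated plants.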

[2] = tested on: SETFA: giant foxtail (Setaria faberi); assay: Post-emergent herbicidal test, giant foxtail; conditions: post-emergence, 336 h, 14 days after application, read-out: Visual Growth Reduction (%) 14 Days After Application SETFA; for pest or weed control at 17.5 g/ha: 17.5 g ai/ha; for pest or weed control at 35 g/ha: 35 g ai/ha; for pest or weed control at 70 g/ha: 70 g ai/ha; for pest or weed control at 140 g/ha: 140 g ai/ha
Outline: as §1

[3] = tested on: BRSNN: oilseed rape, canola (Brassica napus); assay: Post-emergent herbicidal test, oilseed rape; conditions: post-emergence, 336 h, 14 days after application, read-out: Visual Growth Reduction (%) 14 Days After Application BRSNN; for pest or weed control at 17.5 g/ha: 17.5 g ai/ha; for pest or weed control at 35 g/ha: 35 g ai/ha; for pest or weed control at 70 g/ha: 70 g ai/ha; for pest or weed control at 140 g/ha: 140 g ai/ha
Outline: as §1

[4] = tested on: DIGSA: large crabgrass (Digitaria sanguinalis); assay: Post-emergent herbicidal test, large crabgrass; conditions: post-emergence, 336 h, 14 days after application, read-out: Visual Growth Reduction (%) 14 Days After Application DIGSA; for pest or weed control at 17.5 g/ha: 17.5 g ai/ha; for pest or weed control at 35 g/ha: 35 g ai/ha; for pest or weed control at 70 g/ha: 70 g ai/ha; for pest or weed control at 140 g/ha: 140 g ai/ha
Outline: as §1

[5] = tested on: ABUTH: velvetleaf (Abutilon theophrasti); assay: Post-emergent herbicidal test, velvetleaf; conditions: post-emergence, 336 h, 14 days after application, read-out: Visual Growth Reduction (%) 14 Days After Application ABUTH; for pest or weed control at 17.5 g/ha: 17.5 g ai/ha; for pest or weed control at 35 g/ha: 35 g ai/ha; for pest or weed control at 70 g/ha: 70 g ai/ha; for pest or weed control at 140 g/ha: 140 g ai/ha
Outline: as §1

[6] = tested on: CYPES: yellow nutsedge (Cyperus esculentus); assay: Post-emergent herbicidal test, yellow nutsedge; conditions: post-emergence, 336 h, 14 days after application, read-out: Visual Growth Reduction (%) 14 Days After Application CYPES; for pest or weed control at 17.5 g/ha: 17.5 g ai/ha; for pest or weed control at 35 g/ha: 35 g ai/ha; for pest or weed control at 70 g/ha: 70 g ai/ha; for pest or weed control at 140 g/ha: 140 g ai/ha
Outline: as §1

[7] = tested on: CIRAR: Canada thistle (Cirsium arvense); assay: Post-emergent herbicidal test, Canada thistle; conditions: post-emergence, 336 h, 14 days after application, read-out: Visual Growth Reduction (%) 14 Days After Application CIRAR; for pest or weed control at 17.5 g/ha: 17.5 g ai/ha; for pest or weed control at 35 g/ha: 35 g ai/ha; for pest or weed control at 70 g/ha: 70 g ai/ha; for pest or weed control at 140 g/ha: 140 g ai/ha
Outline: as §1

[8] = tested on: IPOHE: ivyleaf morningglory (Ipomoea hederacea); assay: Post-emergent herbicidal test, ivyleaf morningglory; conditions: post-emergence, 336 h, 14 days after application, read-out: Visual Growth Reduction (%) 14 Days After Application IPOHE; for pest or weed control at 17.5 g/ha: 17.5 g ai/ha; for pest or weed control at 35 g/ha: 35 g ai/ha; for pest or weed control at 70 g/ha: 70 g ai/ha; for pest or weed control at 140 g/ha: 140 g ai/ha
Outline: as §1

[9] = tested on: ECHCG: barnyardgrass (Echinochloa crus-galli); assay: Post-emergent herbicidal test, barnyardgrass; conditions: post-emergence, 336 h, 14 days after application, read-out: Visual Growth Reduction (%) 14 Days After Application ECHCG; for pest or weed control at 17.5 g/ha: 17.5 g ai/ha; for pest or weed control at 35 g/ha: 35 g ai/ha; for pest or weed control at 70 g/ha: 70 g ai/ha; for pest or weed control at 140 g/ha: 140 g ai/ha
Outline: as §1

[10] = tested on: EPHHL: wild poinsettia (Euphorbia heterophylla); assay: Post-emergent herbicidal test, wild poinsettia; conditions: post-emergence, 336 h, 14 days after application, read-out: Visual Growth Reduction (%) 14 Days After Application EPHHL; for pest or weed control at 17.5 g/ha: 17.5 g ai/ha; for pest or weed control at 35 g/ha: 35 g ai/ha; for pest or weed control at 70 g/ha: 70 g ai/ha; for pest or weed control at 140 g/ha: 140 g ai/ha
Outline: as §1

[11] = tested on: SORVU: shattercane (Sorghum bicolor); assay: Post-emergent herbicidal test, shattercane; conditions: post-emergence, 336 h, 14 days after application, read-out: Visual Growth Reduction (%) 14 Days After Application SORVU; for pest or weed control at 17.5 g/ha: 17.5 g ai/ha; for pest or weed control at 35 g/ha: 35 g ai/ha; for pest or weed control at 70 g/ha: 70 g ai/ha; for pest or weed control at 140 g/ha: 140 g ai/ha
Outline: as §1

## Nc1c(F)c(-c2cccc3c2OC(F)(F)O3)nc(C(=O)O)c1Cl [Compound 5]
[1]
  pest or weed control at 17.5 g/ha: 0%
  pest or weed control at 35 g/ha: 0%
  pest or weed control at 70 g/ha: 10%
  pest or weed control at 140 g/ha: 10%
[2]
  pest or weed control at 17.5 g/ha: 0%
  pest or weed control at 35 g/ha: 0%
  pest or weed control at 70 g/ha: 0%
  pest or weed control at 140 g/ha: 0%
[3]
  pest or weed control at 17.5 g/ha: 75%
  pest or weed control at 35 g/ha: 80%
  pest or weed control at 70 g/ha: 85%
  pest or weed control at 140 g/ha: 95%
[4]
  pest or weed control at 17.5 g/ha: 0%
  pest or weed control at 35 g/ha: 0%
  pest or weed control at 70 g/ha: 0%
  pest or weed control at 140 g/ha: 0%
[5]
  pest or weed control at 17.5 g/ha: 10%
  pest or weed control at 35 g/ha: 20%
  pest or weed control at 70 g/ha: 40%
  pest or weed control at 140 g/ha: 50%
[6]
  pest or weed control at 17.5 g/ha: 0%
  pest or weed control at 35 g/ha: 0%
  pest or weed control at 70 g/ha: 0%
  pest or weed control at 140 g/ha: 0%
[7]
  pest or weed control at 17.5 g/ha: 60%
  pest or weed control at 35 g/ha: 70%
  pest or weed control at 70 g/ha: 75%
  pest or weed control at 140 g/ha: 80%
[8]
  pest or weed control at 17.5 g/ha: 0%
  pest or weed control at 35 g/ha: 0%
  pest or weed control at 70 g/ha: 0%
  pest or weed control at 140 g/ha: 10%
[9]
  pest or weed control at 17.5 g/ha: 0%
  pest or weed control at 35 g/ha: 0%
  pest or weed control at 70 g/ha: 0%
  pest or weed control at 140 g/ha: 0%
[10]
  pest or weed control at 17.5 g/ha: 0%
  pest or weed control at 35 g/ha: 0%
  pest or weed control at 70 g/ha: 0%
  pest or weed control at 140 g/ha: 0%
[11]
  pest or weed control at 17.5 g/ha: 0%
  pest or weed control at 35 g/ha: 0%
  pest or weed control at 70 g/ha: 0%
  pest or weed control at 140 g/ha: 0%

## COC(=O)c1nc(-c2ccc(Cl)c3c2OC(F)(F)O3)c(F)c(N)c1Cl [Compound 6]
[1]
  pest or weed control at 17.5 g/ha: 3%
  pest or weed control at 35 g/ha: 12%
  pest or weed control at 70 g/ha: 30%
  pest or weed control at 140 g/ha: 53%
[2]
  pest or weed control at 17.5 g/ha: 0%
  pest or weed control at 35 g/ha: 0%
  pest or weed control at 70 g/ha: 0%
  pest or weed control at 140 g/ha: 3%
[3]
  pest or weed control at 17.5 g/ha: 80%
  pest or weed control at 35 g/ha: 82%
  pest or weed control at 70 g/ha: 92%
  pest or weed control at 140 g/ha: 97%
[4]
  pest or weed control at 17.5 g/ha: 0%
  pest or weed control at 35 g/ha: 0%
  pest or weed control at 70 g/ha: 0%
  pest or weed control at 140 g/ha: 0%
[5]
  pest or weed control at 17.5 g/ha: 75%
  pest or weed control at 35 g/ha: 77%
  pest or weed control at 70 g/ha: 80%
  pest or weed control at 140 g/ha: 83%
[6]
  pest or weed control at 17.5 g/ha: 30%
  pest or weed control at 35 g/ha: 25%
  pest or weed control at 70 g/ha: 25%
  pest or weed control at 140 g/ha: 60%
[7]
  pest or weed control at 17.5 g/ha: 70%
  pest or weed control at 35 g/ha: 77%
  pest or weed control at 70 g/ha: 85%
  pest or weed control at 140 g/ha: 88%
[8]
  pest or weed control at 17.5 g/ha: 0%
  pest or weed control at 35 g/ha: 3%
  pest or weed control at 70 g/ha: 3%
  pest or weed control at 140 g/ha: 10%
[9]
  pest or weed control at 17.5 g/ha: 0%
  pest or weed control at 35 g/ha: 0%
  pest or weed control at 70 g/ha: 3%
  pest or weed control at 140 g/ha: 3%
[10]
  pest or weed control at 17.5 g/ha: 2%
  pest or weed control at 35 g/ha: 0%
  pest or weed control at 70 g/ha: 2%
  pest or weed control at 140 g/ha: 7%
[11]
  pest or weed control at 17.5 g/ha: 0%
  pest or weed control at 35 g/ha: 2%
  pest or weed control at 70 g/ha: 10%
  pest or weed control at 140 g/ha: 23%
